# Laboratory results reported in PMC10714400, “Antimicrobial Peptide–Peptoid Hybrids with and without Membrane Disruption” (ACS Infectious Diseases, 2023).
# Like-named read-outs stand apart in the source and are kept apart here. Where a SMILES comes first, the peptide text is derived from it. [ ]: non-standard residue; d: D form. Nleu = CC(C)CNCC(=O)O; Nlys = NCCCCNCC(=O)O
# Legend:
# PA14 4.18 (pmrB) = test system: PA14 4.18 (pmrB)
# Method in brief: (§1)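 Microdilution MIC in MH broth; inocula from overnight LB cultures at 37 °C, about 5 × 10^5 CFU per well. Plates stood ca. 18 h at 37 °C, then MTT (1 mg/mL) was added for 20–30 min at RT, and wells remaining yellow marked inhibition.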
# P. aeruginosa PAO1 = test system: P. aeruginosa PAO1
# Method in brief: as §1
# K. pneumoniae NCTC418 = test system: K. pneumoniae NCTC418
# Method in brief: (§2)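 MTT added (20–30 min, room temperature); MIC read by eye as lowest concentration inhibiting visible growth (yellow). Polymyxin B positive control from 16 μg/mL.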
# S. aureus COL (MRSA) = test system: S. aureus COL (MRSA)
# Method in brief: as §1
# E. cloacae = conditions: pH 7.4
# Method in brief: as §1
# PA14 4.13 (phoQ) = test system: PA14 4.13 (phoQ)
# Method in brief: as §1
# [1] = test system: ZEM-1A (clinical MDR P. aeruginosa isolate)
# Method in brief: as §1
# PA14 2P4 (pmrB) = test system: PA14 2P4 (pmrB)
# Method in brief: as §1
# K. pneumoniae OXA-48 = test system: K. pneumoniae OXA-48
# Method in brief: as §1
# E. coli W3110 = test system: E. coli W3110
# Method in brief: as §1
# [2] = test system: ZEM9A (clinical MDR P. aeruginosa isolate)
# Method in brief: as §1
# A. baumannii ATCC19606 = test system: A. baumannii ATCC19606
# Method in brief: as §2
# S. aureus Newman = conditions: Newman
# Method in brief: as §1
# S. epidermis = conditions: pH 7.4
# Method in brief: as §1
# S. maltophilia = conditions: pH 7.4
# Method in brief: as §1
# P. aeruginosa PA14 = test system: P. aeruginosa PA14
# Method in brief: as §1
# B. cenocepacia = conditions: pH 7.4
# Method in brief: as §1
# [3] = Circular dichroism, α-helical content; type: physicochemical; conditions: 0.1 mg/mL; for CD %α with 5 mM DPC: 10 mM phosphate buffer pH 7.4, 5 mM DPC; for CD %α with 20% TFE: 10 mM phosphate buffer pH 7.4, 20% TFE
# [4] = test system: human red blood cells (hRBC); assay: Minimum hemolytic concentration (MHC); type: cell-based
# From the text: We also measured minimal hemolysis concentrations (MHC) on human red blood cells by serial 2-fold dilution as an indication of toxicity against eukaryotic cells (Table 1).
smiles,measurement,setting,value
CC(C)C[C@H](NC(=O)[C@H](CCCCN)NC(=O)CNCCCCN)C(=O)N[C@@H](CC(C)C)C(=O)N[C@@H](CCCCN)C(=O)N[C@@H](CC(C)C)C(=O)N[C@@H](CC(C)C)C(=O)N[C@@H](CCCCN)C(=O)N[C@@H](CC(C)C)C(=O)N[C@@H](CC(C)C)C(=O)N(CC(N)=O)CC(C)C [EB1] (H-[Nlys]KLLKLLKLL[Nleu]-NH2; N-terminus assumed),"MIC P. aeruginosa PA14 4.18, […] MH at pH 8.5","PA14 4.18 (pmrB); CSV, […] MH at pH 8.5",2 ug/mL
same,"MIC P. aeruginosa PA14 4.18, full MH at pH 7.4","PA14 4.18 (pmrB); CSV, full MH at pH 7.4",32 ug/mL
same,MIC PA14 4.18 (pmrB),"PA14 4.18 (pmrB); MH pH 7.4, 16–20 h at 37 °C",32 µg/mL
same,MIC P. aeruginosa PA14 4.18,"PA14 4.18 (pmrB); Table S3, […] MH at pH 8.5",2 µg/mL
same,"MIC P. aeruginosa PAO1, full MH at pH 7.4","P. aeruginosa PAO1; PAO1, 4 h, pH 7.4",4 ug/mL
same,MIC P. aeruginosa PAO1 […] 7.4,"P. aeruginosa PAO1; Table S2, […] MH, pH 7.4",2 µg/mL
same,MIC P. aeruginosa PAO1 […] 8.5,"P. aeruginosa PAO1; Table S2, […] MH, pH 8.5",2 µg/mL
same,MIC P. aeruginosa PAO1 Full MH 7.4,"P. aeruginosa PAO1; Table S2, full MH, pH 7.4",4 µg/mL
same,MIC P. aeruginosa PAO1 Full MH 8.5,"P. aeruginosa PAO1; Table S2, full MH, pH 8.5",16 µg/mL
same,"MIC K. pneumoniae NCTC418, full MH at pH 7.4","K. pneumoniae NCTC418; NCTC418, 4 h, pH 7.4",8 ug/mL
same,MIC K. pneumoniae NCTC418 […] 7.4,"K. pneumoniae NCTC418; Table S2, […] MH, pH 7.4",2 µg/mL
same,MIC K. pneumoniae NCTC418 Full MH 7.4,"K. pneumoniae NCTC418; Table S2, full MH, pH 7.4",8 µg/mL
same,MIC K. pneumoniae NCTC418 Full MH 8.5,"K. pneumoniae NCTC418; Table S2, full MH, pH 8.5",> 32 µg/mL
same,MIC S. aureus COL (MRSA) Full,"S. aureus COL (MRSA); COL, pH 7.4",8 µg/mL
same,MIC S. aureus COL (MRSA) […] 7.4,"S. aureus COL (MRSA); Table S2, […] MH, pH 7.4",2 µg/mL
same,MIC S. aureus COL (MRSA) […] 8.5,"S. aureus COL (MRSA); Table S2, […] MH, pH 8.5",2 µg/mL
same,MIC S. aureus COL (MRSA) Full MH 7.4,"S. aureus COL (MRSA); Table S2, full MH, pH 7.4",8/32
same,MIC S. aureus COL (MRSA) Full MH 8.5,"S. aureus COL (MRSA); Table S2, full MH, pH 8.5",32 µg/mL
same,"MIC E. cloacae, full MH at pH 7.4",E. cloacae; 4 h,8 ug/mL
same,MIC E. cloacae,E. cloacae,8 µg/mL
same,"MIC P. aeruginosa PA14 4.13, […] MH at pH 8.5","PA14 4.13 (phoQ); CSV, […] MH at pH 8.5",2 ug/mL
same,"MIC P. aeruginosa PA14 4.13, full MH at pH 7.4","PA14 4.13 (phoQ); CSV, full MH at pH 7.4",8 ug/mL
same,MIC PA14 4.13 (phoQ),"PA14 4.13 (phoQ); MH pH 7.4, 16–20 h at 37 °C",8 µg/mL
same,MIC P. aeruginosa PA14 4.13,"PA14 4.13 (phoQ); Table S3, […] MH at pH 8.5",2 µg/mL
same,"MIC P. aeruginosa ZEM-1A, full MH at pH 7.4","[1]; CSV, full MH at pH 7.4",3 ug/mL
same,MIC ZEM-1A,"[1]; MH pH 7.4, 16–20 h at 37 °C",2 to 4 µg/mL
same,"MIC P. aeruginosa PA14 2P4, […] MH at pH 8.5","PA14 2P4 (pmrB); CSV, […] MH at pH 8.5",2 ug/mL
same,"MIC P. aeruginosa PA14 2P4, full MH at pH 7.4","PA14 2P4 (pmrB); CSV, full MH at pH 7.4",32 ug/mL
same,MIC PA14 2P4 (pmrB),"PA14 2P4 (pmrB); MH pH 7.4, 16–20 h at 37 °C",32 µg/mL
same,MIC P. aeruginosa PA14 2P4,"PA14 2P4 (pmrB); Table S3, […] MH at pH 8.5",2 µg/mL
same,"MIC K. pneumoniae OXA-48, full MH at pH 7.4","K. pneumoniae OXA-48; CSV, full MH at pH 7.4",12 ug/mL
same,MIC K. pneumoniae OXA-48,"K. pneumoniae OXA-48; MH pH 7.4, 16–20 h at 37 °C",8 to 16 µg/mL
same,"MIC E. coli W3110, […] MH at pH 7.4","E. coli W3110; CSV, […] MH at pH 7.4",2 ug/mL
same,"MIC E. coli W3110, full MH at pH 7.4","E. coli W3110; CSV, full MH at pH 7.4",2 ug/mL
same,MIC E. coli W3110 […] 7.4,"E. coli W3110; Table S2, […] MH, pH 7.4",2 µg/mL
same,MIC E. coli W3110 […] 8.5,"E. coli W3110; Table S2, […] MH, pH 8.5",1 µg/mL
same,MIC E. coli W3110 Full MH 7.4,"E. coli W3110; Table S2, full MH, pH 7.4",2 µg/mL
same,MIC E. coli W3110 Full MH 8.5,"E. coli W3110; Table S2, full MH, pH 8.5",32 µg/mL
same,MIC E. coli W3110 […],"E. coli W3110; diluted MH ([…] MH, pH 8.5) per Table 1 footnote b, 16–20 h at 37 °C",2 µg/mL
same,"MIC P. aeruginosa ZEM9A, full MH at pH 7.4","[2]; CSV, full MH at pH 7.4",16 ug/mL
same,MIC ZEM9A,"[2]; MH pH 7.4, 16–20 h at 37 °C",16 µg/mL
same,"MIC A. baumannii ATCC19606, full MH at pH 7.4","A. baumannii ATCC19606; ATCC19606, 4 h, pH 7.4",2 ug/mL
same,MIC A. baumannii ATCC19606 […] 7.4,"A. baumannii ATCC19606; Table S2, […] MH, pH 7.4",2 µg/mL
same,MIC A. baumannii ATCC19606 Full MH 7.4,"A. baumannii ATCC19606; Table S2, full MH, pH 7.4",2 µg/mL
same,MIC A. baumannii ATCC19606 Full MH 8.5,"A. baumannii ATCC19606; Table S2, full MH, pH 8.5",> 32 µg/mL
same,"MIC S. aureus Newman, full MH at pH 7.4","S. aureus Newman; 4 h, pH 7.4",32 ug/mL
same,MIC S. aureus Newman,"S. aureus Newman; 4 h, pH 8.5",2 µg/mL
same,MIC S. aureus Newman,S. aureus Newman; pH 7.4,32 µg/mL
same,"MIC S. epidermis, full MH at pH 7.4",S. epidermis; 4 h,6 ug/mL
same,MIC S. epidermis,S. epidermis,4 to 8 µg/mL
same,"MIC S. maltophilia, full MH at pH 7.4",S. maltophilia; 4 h,3 ug/mL
same,MIC S. maltophilia,S. maltophilia,2 to 4 µg/mL
same,"MIC P. aeruginosa PA14, full MH at pH 7.4","P. aeruginosa PA14; PA14, 4 h, pH 7.4",4 ug/mL
same,MIC P. aeruginosa PA14,"P. aeruginosa PA14; PA14, pH 7.4",4 µg/mL
same,MIC P. aeruginosa PA14,"P. aeruginosa PA14; PA14, pH 8.5",2 µg/mL
same,"MIC B. cenocepacia, full MH at pH 7.4",B. cenocepacia; 4 h,>32 ug/mL
same,MIC B. cenocepacia,B. cenocepacia,>32 µg/mL
same,CD %α with 5 mM DPC,"[3]; DichroWeb, Contin-LL",30%
same,CD %α with 20% TFE,"[3]; DichroWeb, Contin-LL",26%
same,CD %α with 5 mM DPC,[3]; Table S2,30%
same,CD %α with 20% TFE,[3]; Table S2,26%
same,MHC,[4],1000 µg/mL
same,MHC (hemolysis),[4]; red cells of human,250 to 1000 µg/mL
